Measured values published in paper PMC6681697, “One-Step ^18F-Labeling and Preclinical Evaluation of Prostate-Specific Membrane Antigen Trifluoroborate Probes for Cancer Imaging” (Journal of Nuclear Medicine, 2019).
Like-named read-outs stand apart in the source and are kept apart here. Each block holds one compound with its values, some of them ahead of it.

What was measured:
[1] = Distribution coefficient (LogD7.4), shake flask method; format: physicochemical; details: n-octanol / phosphate buffer 0.1 M pH 7.4; n = 3
Protocol: LogD7.4 values were measured using the shake flask method. Briefly, an aliquot of ^18F-labeled tracer was added to a vial containing 2.5 mL of n-octanol and 2.5 mL of phosphate buffer (0.1 M, pH 7.4). The mixture was vortexed for 2 min and then centrifuged at 3,000g for 10 min. A sample of the n-octanol (0.1 mL) and buffer (0.1 mL) layers was counted using a γ-counter. Values of LogD7.4 were calculated using the following equation: LogD7.4 = log10 [(counts in n-octanol phase)/(counts in buffer phase)].

PSMA = target: T1, PSMA (Homo sapiens, UniProt Q04609); assay: In vitro competition binding assay on LNCaP cells with ^18F-DCFPyL as radioligand
T1 construct: because it expresses PSMA endogenously and is commonly used to evaluate PSMA-targeting radiotracers; endogenous in cells; host or cells: LNCaP cells
Protocol: LNCaP cells were plated onto a 24-well poly-D-lysine coated plate for 48 h (400,000/well). […] Nonspecific binding was determined in the presence of 10 μM unlabeled DCFPyL. The assay mixtures were incubated for 1 h at 37°C with gentle agitation followed by 2 washes with cold HEPES buffered saline. A trypsin solution (0.25%, 400 μL) was then added to each well to harvest the cells. Radioactivity was measured by γ-counting, and Ki values were calculated using the “1 site—fit Ki” built-in model in Prism 7 (GraphPad).

LNCaP xenografts [2] = assay: Ex vivo biodistribution and blocking studies in mice bearing LNCaP xenografts; details: for tumor uptake: LNCaP tumor
Protocol: (§1) Imaging and biodistribution experiments were performed using NODSCID IL2RγKO male mice. All experiments were conducted according to the guidelines established by the Canadian Council on Animal Care and approved by the Animal Ethics Committee of the University of British Columbia. Mice were anesthetized by inhalation with 2% isoflurane in oxygen and implanted subcutaneously with 1 × 10^7 LNCaP cells behind the left shoulder. The mice were imaged or used in biodistribution studies once the tumor reached 5–8 mm in diameter (5–6 wk).
For biodistribution and blocking studies, the mice were injected with 1–3 MBq of radiotracer. At 60 min, the mice were anesthetized with 2% isoflurane inhalation and euthanized by CO2 inhalation. Blood was withdrawn by cardiac puncture, and the organs and tissues of interest were collected, weighed, and counted using an automatic γ-counter (PerkinElmer). Uptake values were expressed as the percentage of the injected dose per gram of tissue (%ID/g).
A standard 1-way ANOVA was performed to determine whether statistically significant differences in tumor uptake occurred between radiotracers. Each radiotracer was compared with ^18F-DCFPyL using the Dunnett test (a many-to-one t test comparison). This analysis was also performed for kidney and blood activity and for tumor-to-blood and tumor-to-muscle ratios. Reported P values were adjusted for multiple comparisons. The analysis was performed using Prism 8 (GraphPad). […]
Statistical analyses were performed using GradPad prism 7. Multiple t tests were performed to compare biodistribution in unblocked and blocked mice, multiple comparisons were corrected using the Holm-Sidak method. The difference was considered statistically significant when p value was < 0.05.
Supplemental Table 1 – Complete biodistribution study for compounds [18F]1–3 […]
Tissue 1h 1h blocked 1h 1h blocked 1h 1h blocked
(%ID/g) n = 8 n = 4 n = 6 n = 4 n = 8 n = 5 […]
(1 picture or pasted object on this page, not shown here)

LNCaP xenografts [3] = assay: PET/CT imaging of LNCaP tumor-bearing mice; format: in vivo; details: 1 h after injection
Protocol: as §1
PET imaging experiments were conducted using an Inveon preclinical PET/CT scanner (Siemens). Compounds ^18F-1,2,3,5,7, and 8 were formulated in 10% ethanol/normal saline, whereas ^18F-4 and 6 were formulated in 10% ethanol/phosphate-buffered saline. […] For blocking controls, the mice were coinjected with DCFPyL (0.5 mg). After injection, the mice were allowed to recover and roam freely in their cage. After 50 min, the mice were sedated by 2% isoflurane inhalation and positioned in the scanner. A CT scan was performed first for localization and attenuation correction. This was followed by a 10-min static PET scan. The mice were kept warm by a heating pad during image acquisition. […]

[4] = 1 h after injection, 1-way ANOVA, Dunnett test
[5] = 1 h blocked (coinjection of DCFPyL 0.5 mg)

T1 sequence (Q04609 whole entry): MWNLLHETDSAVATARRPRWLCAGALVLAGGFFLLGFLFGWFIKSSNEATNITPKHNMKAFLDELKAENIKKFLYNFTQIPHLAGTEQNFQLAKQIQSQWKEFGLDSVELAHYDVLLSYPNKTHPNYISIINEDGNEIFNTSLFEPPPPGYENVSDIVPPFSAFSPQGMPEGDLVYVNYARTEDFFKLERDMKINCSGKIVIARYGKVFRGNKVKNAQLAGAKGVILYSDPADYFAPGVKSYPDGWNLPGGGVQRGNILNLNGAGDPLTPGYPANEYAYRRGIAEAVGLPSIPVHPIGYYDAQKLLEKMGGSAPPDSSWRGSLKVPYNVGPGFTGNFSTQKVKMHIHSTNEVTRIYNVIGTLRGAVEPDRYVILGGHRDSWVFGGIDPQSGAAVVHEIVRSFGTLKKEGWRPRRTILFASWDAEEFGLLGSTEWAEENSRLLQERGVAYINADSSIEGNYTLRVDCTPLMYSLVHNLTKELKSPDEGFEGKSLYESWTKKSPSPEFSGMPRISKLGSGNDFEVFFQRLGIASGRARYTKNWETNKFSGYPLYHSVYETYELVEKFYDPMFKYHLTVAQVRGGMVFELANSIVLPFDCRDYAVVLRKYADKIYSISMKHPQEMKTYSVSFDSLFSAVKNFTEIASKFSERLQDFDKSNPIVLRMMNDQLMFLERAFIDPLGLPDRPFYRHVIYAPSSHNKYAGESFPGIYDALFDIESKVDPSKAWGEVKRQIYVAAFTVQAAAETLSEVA

logD at 2 min [1]: -3.24 ± 0.03
Ki (PSMA): 16.5 ± 5.5 nM
T/B (tumor-to-blood ratio) (LNCaP xenografts [2]; 1 h after injection, unblocked): 54.57 ± 38.49
T/K (tumor-to-kidney ratio) (LNCaP xenografts [2]; 1 h after injection, unblocked): 0.28 ± 0.22
T/M (tumor-to-muscle ratio) (LNCaP xenografts [2]; 1 h after injection, unblocked): 117.13 ± 52.06
adrenal uptake (LNCaP xenografts [2]; 1 h after injection, unblocked): 0.81 ± 0.25 %ID/g
blood uptake (LNCaP xenografts [2]; 1 h after injection, unblocked): 0.13 ± 0.08 %ID/g
bone uptake (LNCaP xenografts [2]; 1 h after injection, unblocked): 0.10 ± 0.07 %ID/g
brain uptake (LNCaP xenografts [2]; 1 h after injection, unblocked): 0.01 ± 0.01 %ID/g
fat uptake (LNCaP xenografts [2]; 1 h after injection, unblocked): 0.27 ± 0.14 %ID/g
heart uptake (LNCaP xenografts [2]; 1 h after injection, unblocked): 0.07 ± 0.02 %ID/g
intestine uptake (LNCaP xenografts [2]; 1 h after injection, unblocked): 22.24 ± 2.79 %ID/g
kidney uptake (LNCaP xenografts [2]; 1 h after injection, unblocked): 20.35 ± 9.85 %ID/g
liver uptake (LNCaP xenografts [2]; 1 h after injection, unblocked): 0.83 ± 0.34 %ID/g
lung uptake (LNCaP xenografts [2]; 1 h after injection, unblocked): 0.40 ± 0.13 %ID/g
muscle uptake (LNCaP xenografts [2]; 1 h after injection, unblocked): 0.05 ± 0.01 %ID/g
pancreas uptake (LNCaP xenografts [2]; 1 h after injection, unblocked): 0.13 ± 0.11 %ID/g
spleen uptake (LNCaP xenografts [2]; 1 h after injection, unblocked): 0.75 ± 0.36 %ID/g
stomach uptake (LNCaP xenografts [2]; 1 h after injection, unblocked): 0.21 ± 0.12 %ID/g
testes uptake (LNCaP xenografts [2]; 1 h after injection, unblocked): 0.18 ± 0.05 %ID/g
kidney accumulation compared with ^18F-DCFPyL (LNCaP xenografts [2]; [4]): lower kidney accumulation
tumor uptake compared with ^18F-DCFPyL (LNCaP xenografts [2]; [4]): lower tumor uptake than ^18F-DCFPyL
tumor-to-blood and tumor-to-muscle ratios compared with ^18F-DCFPyL (LNCaP xenografts [2]; [4]): higher ratios
T/B (tumor-to-blood ratio) (LNCaP xenografts [2]; [5]): 1.56 ± 0.87
T/K (tumor-to-kidney ratio) (LNCaP xenografts [2]; [5]): 0.28 ± 0.12
T/M (tumor-to-muscle ratio) (LNCaP xenografts [2]; [5]): 3.62 ± 3.62
adrenal uptake (LNCaP xenografts [2]; [5]): 0.06 ± 0.09 %ID/g
blood uptake (LNCaP xenografts [2]; [5]): 0.85 ± 1.37 %ID/g
bone uptake (LNCaP xenografts [2]; [5]): 0.16 ± 0.25 %ID/g
brain uptake (LNCaP xenografts [2]; [5]): 0.01 ± 0.01 %ID/g
fat uptake (LNCaP xenografts [2]; [5]): 0.02 ± 0.02 %ID/g
heart uptake (LNCaP xenografts [2]; [5]): 0.04 ± 0.01 %ID/g
intestine uptake (LNCaP xenografts [2]; [5]): 26.68 ± 9.98 %ID/g
kidney uptake (LNCaP xenografts [2]; [5]): 0.56 ± 0.18 %ID/g
liver uptake (LNCaP xenografts [2]; [5]): 0.73 ± 0.21 %ID/g
lung uptake (LNCaP xenografts [2]; [5]): 0.12 ± 0.04 %ID/g
muscle uptake (LNCaP xenografts [2]; [5]): 0.24 ± 0.37 %ID/g
pancreas uptake (LNCaP xenografts [2]; [5]): 0.06 ± 0.06 %ID/g
spleen uptake (LNCaP xenografts [2]; [5]): 0.15 ± 0.16 %ID/g
stomach uptake (LNCaP xenografts [2]; [5]): 1.55 ± 2.10 %ID/g
testes uptake (LNCaP xenografts [2]; [5]): 0.04 ± 0.01 %ID/g
tumor uptake (LNCaP xenografts [2]; 1 h after injection, unblocked, listed as 7): 5.1 ± 1.1 %ID/g
tumor uptake (LNCaP xenografts [2]; 1 h after injection, unblocked, listed as [18F]7): 5.09 ± 1.10 %ID/g
tumor uptake (LNCaP xenografts [2]; [5]): 0.15 ± 0.06 %ID/g
SMILES: C[N+](C)(Cc1cn(CC(=O)NCCOCCOCCC(=O)N[C@@H](Cc2ccc3ccccc3c2)C(=O)NCCCC[C@H](NC(=O)N[C@@H](CCC(=O)O)C(=O)O)C(=O)O)nn1)C[B-](F)(F)F [^18F-7]

SMILES: C[N+](C)(Cc1cn(CC(=O)N[C@@H](CCC(=O)O)C(=O)NCCCC[C@H](NC(=O)[C@H](CCC(=O)O)NC(=O)Cn2cc(C[N+](C)(C)C[B-](F)(F)F)nn2)C(=O)NC[C@H]2CC[C@H](C(=O)N[C@@H](Cc3ccc4ccccc4c3)C(=O)NCCCC[C@H](NC(=O)N[C@@H](CCC(=O)O)C(=O)O)C(=O)O)CC2)nn1)C[B-](F)(F)F [^18F-8]
LogD7.4 [1]: −3.58 ± 0.36
accumulation in the liver (LNCaP xenografts [3]; PET/CT): no significant accumulation in the liver
clearance / excretion pathway (LNCaP xenografts [3]; imaging and biodistribution): no hepatobiliary excretion
Ki (PSMA; LNCaP cells, 0.1 nM ^18F-DCFPyL radioligand, 1 h at 37°C, n = 3): 0.22 ± 0.01 nM
T/B (tumor-to-blood ratio) (LNCaP xenografts [2]; 1 h after injection, unblocked): 30.95 ± 7.76
T/K (tumor-to-kidney ratio) (LNCaP xenografts [2]; 1 h after injection, unblocked): 0.14 ± 0.07
T/M (tumor-to-muscle ratio) (LNCaP xenografts [2]; 1 h after injection, unblocked): 67.23 ± 25.93
adrenal uptake (LNCaP xenografts [2]; 1 h after injection, unblocked): 7.72 ± 2.70 %ID/g
blood uptake (LNCaP xenografts [2]; 1 h after injection, unblocked): 0.56 ± 0.11 %ID/g
bone uptake (LNCaP xenografts [2]; 1 h after injection, unblocked): 0.25 ± 0.10 %ID/g
brain uptake (LNCaP xenografts [2]; 1 h after injection, unblocked): 0.02 ± 0.00 %ID/g
fat uptake (LNCaP xenografts [2]; 1 h after injection, unblocked): 0.80 ± 0.28 %ID/g
heart uptake (LNCaP xenografts [2]; 1 h after injection, unblocked): 0.28 ± 0.07 %ID/g
intestine uptake (LNCaP xenografts [2]; 1 h after injection, unblocked): 0.32 ± 0.06 %ID/g
kidney uptake (LNCaP xenografts [2]; 1 h after injection, unblocked): 143.85 ± 61.73 %ID/g
liver uptake (LNCaP xenografts [2]; 1 h after injection, unblocked): 0.20 ± 0.05 %ID/g
lung uptake (LNCaP xenografts [2]; 1 h after injection, unblocked): 1.97 ± 0.34 %ID/g
muscle uptake (LNCaP xenografts [2]; 1 h after injection, unblocked): 0.27 ± 0.06 %ID/g
pancreas uptake (LNCaP xenografts [2]; 1 h after injection, unblocked): 0.46 ± 0.15 %ID/g
spleen uptake (LNCaP xenografts [2]; 1 h after injection, unblocked): 6.47 ± 2.17 %ID/g
stomach uptake (LNCaP xenografts [2]; 1 h after injection, unblocked): 0.11 ± 0.03 %ID/g
testes uptake (LNCaP xenografts [2]; 1 h after injection, unblocked): 0.57 ± 0.12 %ID/g
tumor uptake compared with ^18F-DCFPyL (LNCaP xenografts [2]; [4]): higher uptake
T/B (tumor-to-blood ratio) (LNCaP xenografts [2]; [5]): 0.92 ± 0.24
T/K (tumor-to-kidney ratio) (LNCaP xenografts [2]; [5]): 0.17 ± 0.04
T/M (tumor-to-muscle ratio) (LNCaP xenografts [2]; [5]): 3.07 ± 0.92
adrenal uptake (LNCaP xenografts [2]; [5]): 0.14 ± 0.03 %ID/g
blood uptake (LNCaP xenografts [2]; [5]): 0.39 ± 0.07 %ID/g
bone uptake (LNCaP xenografts [2]; [5]): 0.15 ± 0.02 %ID/g
brain uptake (LNCaP xenografts [2]; [5]): 0.01 ± 0.00 %ID/g
fat uptake (LNCaP xenografts [2]; [5]): 0.06 ± 0.02 %ID/g
heart uptake (LNCaP xenografts [2]; [5]): 0.13 ± 0.01 %ID/g
intestine uptake (LNCaP xenografts [2]; [5]): 0.26 ± 0.05 %ID/g
kidney uptake (LNCaP xenografts [2]; [5]): 2.19 ± 0.44 %ID/g
liver uptake (LNCaP xenografts [2]; [5]): 0.16 ± 0.04 %ID/g
lung uptake (LNCaP xenografts [2]; [5]): 0.33 ± 0.06 %ID/g
muscle uptake (LNCaP xenografts [2]; [5]): 0.13 ± 0.06 %ID/g
pancreas uptake (LNCaP xenografts [2]; [5]): 0.09 ± 0.03 %ID/g
spleen uptake (LNCaP xenografts [2]; [5]): 0.12 ± 0.04 %ID/g
stomach uptake (LNCaP xenografts [2]; [5]): 0.09 ± 0.04 %ID/g
testes uptake (LNCaP xenografts [2]; [5]): 0.18 ± 0.09 %ID/g
tumor uptake (LNCaP xenografts [2]; 1 h after injection, unblocked, listed as 8): 16.7 ± 2.7 %ID/g
tumor uptake (LNCaP xenografts [2]; 1 h after injection, unblocked, listed as [18F]8): 16.66 ± 2.74 %ID/g
tumor uptake (LNCaP xenografts [2]; [5]): 0.35 ± 0.03 %ID/g
